{"source": "patent US7456201B2", "about": "“Pharmaceutically active compounds and methods of use” (Laboratoires Serono SA, priority 2000, dated 2008)", "test_system": "untransfected CHO parental cells", "test": "CHO parental cells assay (intracellular cAMP, RIA)", "assay_type": "cell-based, Chinese Hamster", "conditions": "tested on untransfected CHO parental cells", "experimental": "Briefly CHO parental cells were plated in 96 well packard view plates 5×10^4 cells/well in serum containing media. […] The wells were washed with serum free assay medium (containing 0.1 mM MIX) and pre-incubated for 15 minutes in this medium. Compound 1 and forskolin (positive control) were added and the cells were incubated for an additional one hour. The cells were lysed and intracellular cAMP was measured using the Amersham direct one step cAMP-RIA kit according to the manufacturers directions."}
{"compound": "CC(C)(C)c1ccc(-n2nc(-c3cccnc3)cc2CCCCC(=O)NC(Cc2ccc(O)cc2)C(N)=O)cc1", "note": "(stereo not shown) [Compound 1-B, N-(5-[1-(4-tert-butylphenyl)-3-pyridin-3-yl-1H-pyrazol-5-yl]pentanoyl)tyrosinamide]", "values": [{"measurement": "hFSHR specificity", "value": "hFSHR specific"}]}
